According to US11597724B2, “Herbicidally active 3-phenylisoxazoline-5-carboxamides of tetrahydro and dihydrofuran carboxylic acids and esters” (Bayer Aktiengesellschaft, priority 2017, dated 2023):

Legend:
Assay type in all cases: in vivo
Avena fatua [1] = assay: Pre-emergence herbicidal activity against AVEFA; details: dosage 80 g/ha; for pest or weed control at 80 g/ha: Avena fatua, 504 h, read-out: Pre-emergence herbicidal activity against AVEVA in % (AVEFA)
Source text: (§1) 1. Pre-Emergence Herbicidal Action and Crop Plant Compatibility Seeds of monocotyledonous and dicotyledonous weed plants and crop plants are placed in plastic or wood fiber pots and covered with soil. The compounds of the invention, formulated in the form of wettable powders (WP) or as emulsion concentrates (EC), are then applied onto the surface of the covering soil as aqueous suspension or emulsion with addition of 0.5% additive at a water application rate of 600 l/ha (converted). After the treatment, the pots are placed in a greenhouse and kept under good growth conditions for the trial plants. After about 3 weeks, the effect of the preparations is scored visually in comparison with untreated controls as percentages. For example, 100% activity=the plants have died, 0% activity=like control plants. AMARE: Amaranthus retroflexus AVEFA: Avena fatua

Alopecurus myosuroides = assay: Post-emergence herbicidal activity against ALOMY; details: dosage 320 g/ha, rated about 3 weeks after treatment; for pest or weed control at 320 g/ha: Alopecurus myosuroides, 504 h
Summary of the method: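 Greenhouse-grown plants treated at one-leaf stage, 2 to 3 weeks after sowing, with WP or EC formulations sprayed as aqueous suspension/emulsion plus 0.5% additive at 600 l/ha. Activity rated visually about 3 weeks later versus untreated controls (100% = plants dead, 0% = like control).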

Stellaria media [2] = assay: Post-emergence herbicidal activity against STEME; details: dosage 320 g/ha, rated about 3 weeks after treatment; for pest or weed control at 320 g/ha: Stellaria media, 504 h
Summary of the method: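 Greenhouse plants treated at one-leaf stage, 2–3 weeks after sowing, by spraying WP or EC formulations with 0.5% additive at 600 l/ha water. Visual rating about 3 weeks later versus untreated controls (100% = plants dead, 0% = like controls).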

Amaranthus retroflexus [3] = assay: Pre-emergence herbicidal activity against AMARE; details: dosage 80 g/ha; for pest or weed control at 80 g/ha: Amaranthus retroflexus, 504 h
Source text: as §1

Avena fatua [4] = assay: Post-emergence herbicidal activity against AVEFA; details: dosage 320 g/ha, rated about 3 weeks after treatment; for pest or weed control at 320 g/ha: Avena fatua, 504 h
Summary of the method: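 Greenhouse pots of sandy loam; plants sprayed at one-leaf stage, 2 to 3 weeks after sowing, with WP or EC formulations in water plus 0.5% additive at 600 l/ha. Activity rated visually after about 3 weeks against untreated controls (100% = plants dead, 0% = like control).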

Pharbitis purpurea = assay: Post-emergence herbicidal activity against PHBPU; details: dosage 320 g/ha, rated about 3 weeks after treatment; for pest or weed control at 320 g/ha: Ipomoea purpurea, 504 h
Summary of the method: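 Greenhouse-grown plants sprayed post-emergence at the one-leaf stage, 2 to 3 weeks after sowing, with WP or EC formulations plus 0.5% additive at 600 l/ha water. Activity rated visually after about 3 weeks versus untreated controls (100% = plants dead, 0% = like control).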

Stellaria media [5] = assay: Pre-emergence herbicidal activity against STEME; details: dosage 80 g/ha; for pest or weed control at 80 g/ha: Stellaria media, 504 h
Source text: as §1, with “STEME: Stellaria media VERPE: Veronica persica” for “AMARE: Amaranthus retroflexus AVEFA: Avena fatua”

Amaranthus retroflexus [6] = assay: Post-emergence herbicidal activity against AMARE; details: dosage 320 g/ha, rated about 3 weeks after treatment; for pest or weed control at 320 g/ha: Amaranthus retroflexus, 504 h
Protocol: AMARE: Amaranthus retroflexus AVEFA: Avena fatua 2. Post-Emergence Herbicidal Action and Crop Plant Compatibility Seeds of monocotyledonous and dicotyledonous weeds and crop plants are placed in sandy loam in plastic or wood-fiber pots, covered with soil and cultivated in a greenhouse under controlled growth conditions. 2 to 3 weeks after sowing, the test plants are treated at the one-leaf stage. The compounds of the invention, formulated in the form of wettable powders (WP) or as emulsion concentrates (EC), are then sprayed onto the green parts of the plants as aqueous suspension or emulsion with addition of 0.5% additive at a water application rate of 600 l/ha (converted). After the test plants had been kept in the greenhouse under optimum growth conditions for about 3 weeks, the activity of the preparations is rated visually in comparison to untreated controls. For example, 100% activity=the plants have died, 0% activity=like control plants.

Structure (SMILES) | pest or weed control at 320 g/ha (Alopecurus myosuroides) [%] | pest or weed control at 320 g/ha (Stellaria media [2]) [%] | pest or weed control at 320 g/ha (Avena fatua [4]) [%] | pest or weed control at 320 g/ha (Pharbitis purpurea) [%] | pest or weed control at 320 g/ha (Amaranthus retroflexus [6]) [%] | pest or weed control at 80 g/ha (Amaranthus retroflexus [3]) [%] | other results
CC1(C(=O)NC2COC(C(=O)O)C2)CC(c2cc(F)cc(F)c2)=NO1 (mixture of isomers) [I-41] |  |  |  |  |  |  | Pre-emergence herbicidal activity against AVEVA in % (AVEFA) (Avena fatua [1]): 100%; Post-emergence herbicidal activity against ALOMY in % (Alopecurus myosuroides): 100%; Post-emergence herbicidal activity against STEME in % (Stellaria media [2]): 90%; Pre-emergence herbicidal activity against AMARE in % (Amaranthus retroflexus [3]): 90%; Post-emergence herbicidal activity against AVEFA in % (Avena fatua [4]): 100%; Post-emergence herbicidal activity against PHBPU in % (Pharbitis purpurea): 90%; Pre-emergence herbicidal activity against STEME in % (Stellaria media [5]): 100%; Post-emergence herbicidal activity against AMARE in % (Amaranthus retroflexus [6]): 100%
COC(=O)[C@H]1C[C@H](NC(=O)[C@@]2(C)CC(c3cc(F)cc(F)c3)=NO2)CO1 (mixture of isomers) [I-55, methyl trans-4-[[(5R)-3-(3,5-difluorophenyl)-5-methyl-4H-isoxazole-5-carbonyl]amino]tetrahydrofuran-2-carboxylate] | 90 | 90 | 90 | 90 | 80 |  | 
C=C[C@]1(C(=O)N[C@@H]2CO[C@@H](C(=O)OC)C2)CC(c2cc(F)cc(F)c2)=NO1 (mixture of isomers) [I-56, methyl trans-4-[[(5S)-3-(3,5-difluorophenyl)-5-vinyl-4H-isoxazole-5-carbonyl]amino]tetrahydrofuran-2-carboxylate] | 90 | 90 | 100 | 90 | 90 |  | 
CCOC(=O)[C@H]1C[C@@H](NC(=O)C2(C)CC(c3cccc(F)c3)=NO2)CO1 (mixture of isomers) [I-30, ethyl cis-4-[[(5RS)-3-(3-fluorophenyl)-5-methyl-4H-isoxazole-5-carbonyl]amino]tetrahydrofuran-2-carboxylate] | 100 | 90 | 100 | 90 |  | 80 | pest or weed control at 80 g/ha (Avena fatua [1]): 80%; pest or weed control at 80 g/ha (Stellaria media [5]): 90%
CC(C)OC(=O)[C@H]1C[C@@H](NC(=O)C2(C)CC(c3cccc(F)c3)=NO2)CO1 (mixture of isomers) [I-32, isopropyl cis-4-[[(5RS)-3-(3-fluorophenyl)-5-methyl-4H-isoxazole-5-carbonyl]amino]tetrahydrofuran-2-carboxylate] | 90 | 90 | 100 | 90 | 80 | 90 | pest or weed control at 80 g/ha (Stellaria media [5]): 90%
CC1(C(=O)N[C@H]2CO[C@@H](C(=O)OCc3ccccc3)C2)CC(c2cccc(F)c2)=NO1 (mixture of isomers) [I-34, benzyl cis-4-[[(5RS)-3-(3-fluorophenyl)-5-methyl-4H-isoxazole-5-carbonyl]amino]tetrahydrofuran-2-carboxylate] | 100 | 90 | 100 | 90 | 80 |  | pest or weed control at 80 g/ha (Avena fatua [1]): 80%; pest or weed control at 80 g/ha (Stellaria media [5]): 90%
C=CC1(C(=O)N[C@H]2CO[C@@H](C(=O)OC)C2)CC(c2cc(Cl)cc(Cl)c2)=NO1 (relative stereo) [I-03, methyl cis-4-[[3-(3,5-dichlorophenyl)-5-vinyl-4H-isoxazole-5-carbonyl]amino]tetrahydrofuran-2-carboxylate] | 90 | 90 | 80 | 90 |  | 80 | 
COC(=O)[C@H]1C[C@@H](NC(=O)C2(C)CC(c3cc(C)cc(Br)c3)=NO2)CO1 (relative stereo) [I-04, methyl cis-4-[[3-(3-bromo-5-methylphenyl)-5-methyl-4H-isoxazole-5-carbonyl]amino]tetrahydrofuran-2-carboxylate] | 90 | 90 | 100 | 90 |  |  | 
COC(=O)[C@H]1C[C@@H](NC(=O)C2(OC)CC(c3cc(F)cc(F)c3)=NO2)CO1 (relative stereo) [I-05, methyl cis-4-[[3-(3,5-difluorophenyl)-5-methoxy-4H-isoxazole-5-carbonyl]amino]tetrahydrofuran-2-carboxylate] | 90 | 90 | 100 | 90 |  |  | 
COC(=O)[C@H]1C[C@@H](NC(=O)C2(C(F)(F)F)CC(c3cc(F)cc(F)c3)=NO2)CO1 (relative stereo) [I-06, methyl cis-4-[[3-(3,5-difluorophenyl)-5-(trifluoromethyl)-4H-isoxazole-5-carbonyl]amino]tetrahydrofuran-2-carboxylate] | 90 | 80 | 90 | 90 | 80 |  | pest or weed control at 80 g/ha (Avena fatua [1]): 90%
C=CC1(C(=O)N[C@H]2CO[C@@H](C(=O)OC)C2)CC(c2cccc(F)c2)=NO1 (relative stereo) [I-07, methyl cis-4-[[3-(3-fluorophenyl)-5-vinyl-4H-isoxazole-5-carbonyl]amino]tetrahydrofuran-2-carboxylate] | 90 | 90 | 90 | 90 |  | 90 | 
COC(=O)[C@H]1C[C@@H](NC(=O)C2(OC)CC(c3ccccc3)=NO2)CO1 (relative stereo) [I-14, methyl cis-4-[(5-methoxy-3-phenyl-4H-isoxazole-5-carbonyl)amino]tetrahydrofuran-2-carboxylate] | 100 | 90 | 100 | 80 |  |  | 
C=CC1(C(=O)NC2=C(C(=O)OCC)COC2)CC(c2cc(F)cc(F)c2)=NO1 (centres unmarked) [I-23, ethyl 4-[[3-(3,5-difluorophenyl)-5-vinyl-4H-isoxazole-5-carbonyl]amino]-2,5-dihydrofuran-3-carboxylate] | 100 | 90 | 100 | 90 | 80 | 80 | pest or weed control at 80 g/ha (Avena fatua [1]): 90%
COC(=O)C1=C[C@H](NC(=O)C2(C)CC(c3cccc(F)c3)=NO2)CO1 (stereo partly drawn) [I-39, methyl (3S)-3-[[3-(3-fluorophenyl)-5-methyl-4H-isoxazole-5-carbonyl]amino]-2,3-dihydrofuran-5-carboxylate] | 100 | 90 | 100 | 90 | 80 |  | 
COC(=O)[C@@]1(OC)C[C@@H](NC(=O)C2(C)CC(c3cccc(F)c3)=NO2)CO1 (stereo partly drawn) [I-47, methyl (2R,4R)-4-[[3-(3-fluorophenyl)-5-methyl-4H-isoxazole-5-carbonyl]amino]-2-methoxytetrahydrofuran-2-carboxylate] | 100 | 90 | 100 | 90 |  |  | 
